Key:
Experiment in all cases: pEC50 of peptide local stability change
MurF = MurF (UniProt P11880); conditions: peptide sequence: KLTPGCLFVALKGER; direction: stabilized; replicate design: treated separately
Protocol: (§1)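 Dose-response HT-PELSA: desalted E. coli lysate treated separately per replicate with ATP (10 uM to 10 mM, 7 doses) for 30 min at 25 C, then a 4 min trypsin pulse at 22 C. Peptide ratio vs control was fitted with a 4-parameter log-logistic model (R2 > 0.9 in at least 3 replicates, CV of pEC50 <= 0.25); value is the mean pEC50 across replicates for stabilized or destabilized peptides.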

UniProt P04993 = conditions: peptide sequence: VAAAVALTR; direction: stabilized; replicate design: treated separately
Chain of UniProt P04993 (P04993 whole entry): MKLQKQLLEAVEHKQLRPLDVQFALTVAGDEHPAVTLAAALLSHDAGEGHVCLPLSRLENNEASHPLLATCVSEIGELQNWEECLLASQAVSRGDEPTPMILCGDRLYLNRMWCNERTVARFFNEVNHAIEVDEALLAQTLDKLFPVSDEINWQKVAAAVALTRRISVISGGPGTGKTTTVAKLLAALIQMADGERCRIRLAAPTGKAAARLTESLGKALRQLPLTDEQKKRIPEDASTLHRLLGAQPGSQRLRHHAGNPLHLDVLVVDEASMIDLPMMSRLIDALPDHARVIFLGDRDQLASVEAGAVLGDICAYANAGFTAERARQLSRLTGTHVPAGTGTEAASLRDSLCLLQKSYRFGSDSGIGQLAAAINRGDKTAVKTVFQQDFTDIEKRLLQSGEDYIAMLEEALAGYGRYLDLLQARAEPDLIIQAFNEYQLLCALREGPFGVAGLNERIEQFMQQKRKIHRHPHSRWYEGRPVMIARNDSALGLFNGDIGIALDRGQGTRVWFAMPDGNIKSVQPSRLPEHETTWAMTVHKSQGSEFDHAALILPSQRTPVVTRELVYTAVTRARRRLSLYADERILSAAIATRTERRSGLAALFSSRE
Protocol: as §1

UniProt P09980 = conditions: peptide sequence: DYAILYR; direction: stabilized; replicate design: treated separately
Protocol: as §1

UniProt P13000 = conditions: peptide sequence: TVASCALLQAAK; direction: stabilized; replicate design: treated separately
Protocol: as §1

UniProt P13458 = conditions: peptide sequence: LESTFAVK; direction: stabilized; replicate design: treated separately
Protocol: as §1

UniProt P14375 = conditions: peptide sequence: ELENAVER; direction: stabilized; replicate design: treated separately
Protocol: as §1

UniProt P18392 = conditions: peptide sequence: EHIFEPFVR; direction: stabilized; replicate design: treated separately
Chain of UniProt P18392 (P18392 whole entry): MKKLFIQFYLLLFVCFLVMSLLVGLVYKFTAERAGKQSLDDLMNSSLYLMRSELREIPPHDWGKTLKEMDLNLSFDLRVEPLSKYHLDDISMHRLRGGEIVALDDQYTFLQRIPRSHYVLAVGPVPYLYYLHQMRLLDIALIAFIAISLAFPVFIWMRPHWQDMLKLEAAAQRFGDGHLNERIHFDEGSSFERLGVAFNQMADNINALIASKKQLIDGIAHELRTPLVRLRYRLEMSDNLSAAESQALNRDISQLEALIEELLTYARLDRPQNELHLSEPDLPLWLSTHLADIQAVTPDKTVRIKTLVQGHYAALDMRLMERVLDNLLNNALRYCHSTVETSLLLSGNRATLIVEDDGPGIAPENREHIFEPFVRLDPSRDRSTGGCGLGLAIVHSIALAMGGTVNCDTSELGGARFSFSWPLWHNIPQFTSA
Protocol: as §1

UniProt P21693 = conditions: peptide sequence: DSLQHAPHIIVATPGR; direction: stabilized; replicate design: treated separately
Chain of UniProt P21693 (P21693 whole entry): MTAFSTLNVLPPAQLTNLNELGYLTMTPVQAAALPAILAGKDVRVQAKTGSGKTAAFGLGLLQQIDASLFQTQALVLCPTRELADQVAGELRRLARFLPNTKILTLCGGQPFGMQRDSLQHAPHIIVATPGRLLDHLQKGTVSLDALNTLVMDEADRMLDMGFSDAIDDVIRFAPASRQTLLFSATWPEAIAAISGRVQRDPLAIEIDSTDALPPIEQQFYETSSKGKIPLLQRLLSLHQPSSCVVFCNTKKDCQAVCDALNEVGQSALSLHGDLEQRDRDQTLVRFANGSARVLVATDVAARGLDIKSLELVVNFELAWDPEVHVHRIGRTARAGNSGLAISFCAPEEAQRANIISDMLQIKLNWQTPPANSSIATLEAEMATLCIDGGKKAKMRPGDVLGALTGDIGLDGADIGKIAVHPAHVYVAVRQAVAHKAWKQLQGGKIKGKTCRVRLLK
Protocol: as §1

UniProt P23874 = conditions: peptide sequence: ISVAGAQEK; direction: stabilized; replicate design: treated separately
Protocol: as §1

UniProt P25539 = conditions: peptide sequence: HVGPDVCLHLVGA; direction: stabilized; replicate design: treated separately
Protocol: as §1

UniProt P25742 = conditions: peptide sequence: GCETKPITGLAGK; direction: stabilized; replicate design: treated separately
Protocol: as §1

UniProt P27278 = conditions: peptide sequence: TVAILGGESSGK; direction: stabilized; replicate design: treated separately
Chain of UniProt P27278 (P27278 whole entry): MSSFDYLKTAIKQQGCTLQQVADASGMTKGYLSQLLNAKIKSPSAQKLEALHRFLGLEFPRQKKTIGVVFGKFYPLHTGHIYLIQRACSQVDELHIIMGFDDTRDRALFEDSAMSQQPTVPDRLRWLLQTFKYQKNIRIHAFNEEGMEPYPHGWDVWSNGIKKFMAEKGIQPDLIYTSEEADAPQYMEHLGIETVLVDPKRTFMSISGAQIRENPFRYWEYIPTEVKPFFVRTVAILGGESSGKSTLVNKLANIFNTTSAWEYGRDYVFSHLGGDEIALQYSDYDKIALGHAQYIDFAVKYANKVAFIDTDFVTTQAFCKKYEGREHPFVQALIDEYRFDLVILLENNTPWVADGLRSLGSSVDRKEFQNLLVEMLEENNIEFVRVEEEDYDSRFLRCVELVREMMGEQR
Protocol: as §1

UniProt P28903 = conditions: peptide sequence: KGDPNYDIK; direction: stabilized; replicate design: treated separately
Protocol: as §1

UniProt P30015 = conditions: peptide sequence: TGDTPAQER; direction: stabilized; replicate design: treated separately
Chain of UniProt P30015 (P30015 whole entry): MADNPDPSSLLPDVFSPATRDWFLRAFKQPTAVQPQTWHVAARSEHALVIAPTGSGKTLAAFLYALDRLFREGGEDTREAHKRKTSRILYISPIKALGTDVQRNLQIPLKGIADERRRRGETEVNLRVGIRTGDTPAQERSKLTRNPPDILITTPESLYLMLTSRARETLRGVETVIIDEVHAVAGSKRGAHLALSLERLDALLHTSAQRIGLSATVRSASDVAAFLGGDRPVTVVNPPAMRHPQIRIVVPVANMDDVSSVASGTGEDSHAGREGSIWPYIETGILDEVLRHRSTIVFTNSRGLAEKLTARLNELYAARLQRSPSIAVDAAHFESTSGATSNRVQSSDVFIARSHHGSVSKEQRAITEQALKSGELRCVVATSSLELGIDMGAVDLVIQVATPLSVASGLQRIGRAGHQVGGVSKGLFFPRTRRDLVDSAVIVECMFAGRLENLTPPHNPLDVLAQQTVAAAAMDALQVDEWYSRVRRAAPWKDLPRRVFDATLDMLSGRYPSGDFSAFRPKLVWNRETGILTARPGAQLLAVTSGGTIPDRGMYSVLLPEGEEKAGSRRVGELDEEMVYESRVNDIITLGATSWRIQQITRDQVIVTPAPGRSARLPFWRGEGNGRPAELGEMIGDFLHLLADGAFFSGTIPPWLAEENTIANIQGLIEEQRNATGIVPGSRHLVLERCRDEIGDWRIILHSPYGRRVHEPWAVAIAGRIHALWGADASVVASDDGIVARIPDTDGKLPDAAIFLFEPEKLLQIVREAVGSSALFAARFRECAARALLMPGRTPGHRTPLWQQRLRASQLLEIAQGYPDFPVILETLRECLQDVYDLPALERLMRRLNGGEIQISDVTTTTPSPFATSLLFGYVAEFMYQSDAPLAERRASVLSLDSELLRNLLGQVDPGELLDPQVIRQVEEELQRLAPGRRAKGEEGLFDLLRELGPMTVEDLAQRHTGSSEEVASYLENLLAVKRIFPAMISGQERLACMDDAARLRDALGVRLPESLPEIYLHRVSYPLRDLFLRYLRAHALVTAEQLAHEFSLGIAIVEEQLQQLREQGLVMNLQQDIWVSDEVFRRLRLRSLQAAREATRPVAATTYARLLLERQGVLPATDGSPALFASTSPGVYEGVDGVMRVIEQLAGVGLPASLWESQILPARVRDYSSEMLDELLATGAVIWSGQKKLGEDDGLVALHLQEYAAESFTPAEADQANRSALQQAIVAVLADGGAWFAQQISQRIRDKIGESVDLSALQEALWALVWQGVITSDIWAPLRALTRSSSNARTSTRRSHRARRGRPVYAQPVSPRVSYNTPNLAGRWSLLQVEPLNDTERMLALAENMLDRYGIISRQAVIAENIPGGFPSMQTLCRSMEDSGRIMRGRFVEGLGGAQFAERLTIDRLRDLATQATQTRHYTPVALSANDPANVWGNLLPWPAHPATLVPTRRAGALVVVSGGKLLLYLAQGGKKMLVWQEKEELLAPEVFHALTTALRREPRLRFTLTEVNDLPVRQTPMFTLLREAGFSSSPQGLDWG
Protocol: as §1

UniProt P31663 = conditions: peptide sequence: NGYLTAEQR; direction: stabilized; replicate design: treated separately
Protocol: as §1

UniProt P33919 = conditions: peptide sequence: VLVLAHVK; direction: stabilized; replicate design: treated separately
Protocol: as §1

UniProt P36566 = conditions: peptide sequence: TLSPDYPR; direction: stabilized; replicate design: treated separately
Chain of UniProt P36566 (P36566 whole entry): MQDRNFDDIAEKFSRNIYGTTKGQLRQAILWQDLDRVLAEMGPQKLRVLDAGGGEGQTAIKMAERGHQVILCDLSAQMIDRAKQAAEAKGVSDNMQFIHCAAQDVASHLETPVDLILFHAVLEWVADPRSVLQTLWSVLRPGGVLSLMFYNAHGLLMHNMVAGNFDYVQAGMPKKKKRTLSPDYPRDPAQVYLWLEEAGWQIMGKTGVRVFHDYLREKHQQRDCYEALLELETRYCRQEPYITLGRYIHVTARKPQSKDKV
Protocol: as §1

UniProt P37440 = conditions: peptide sequence: CTAVVADVR; direction: stabilized; replicate design: treated separately
Protocol: as §1

UniProt P37617 = conditions: peptide sequence: VTQVAFDKTGTLTVGKPR; direction: stabilized; replicate design: treated separately
Protocol: as §1

UniProt P37634 = conditions: peptide sequence: HTVQSLIIESLKEK; direction: stabilized; replicate design: treated separately
Protocol: as §1

UniProt P37647 = conditions: peptide sequence: GHLTASTVIQYR; direction: stabilized; replicate design: treated separately
Protocol: as §1

UniProt P39177 = conditions: peptide sequence: NPSISTHLLGSNASSVIR; direction: stabilized; replicate design: treated separately
Chain of UniProt P39177 (P39177 whole entry): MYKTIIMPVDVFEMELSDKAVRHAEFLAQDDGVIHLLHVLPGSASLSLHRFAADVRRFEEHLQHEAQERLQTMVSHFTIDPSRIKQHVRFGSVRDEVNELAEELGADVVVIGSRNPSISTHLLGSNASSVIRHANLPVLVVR
Protocol: as §1

UniProt P39383 = conditions: peptide sequence: QLVDFADK; direction: stabilized; replicate design: treated separately
Protocol: as §1

UniProt P43329 = conditions: peptide sequence: HTEILPLYAR; direction: stabilized; replicate design: treated separately
Protocol: as §1

UniProt P75828 = conditions: peptide sequence: YLDIINR; direction: stabilized; replicate design: treated separately
Protocol: as §1

UniProt P76014 = conditions: peptide sequence: VVEKLPAIADKDIGFILK; direction: stabilized; replicate design: treated separately
Chain of UniProt P76014 (P76014 whole entry): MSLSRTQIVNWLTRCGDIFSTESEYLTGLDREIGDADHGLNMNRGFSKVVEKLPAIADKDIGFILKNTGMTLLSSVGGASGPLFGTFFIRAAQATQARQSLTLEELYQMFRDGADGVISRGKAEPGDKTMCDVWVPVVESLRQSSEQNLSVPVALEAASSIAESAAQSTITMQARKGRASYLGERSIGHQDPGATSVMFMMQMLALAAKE
Protocol: as §1

UniProt P76027 = conditions: peptide sequence: EILNLPEHELNKLR; direction: stabilized; replicate design: treated separately
Protocol: as §1

UniProt P76192 = conditions: peptide sequence: VLPAEEYAEIR; direction: stabilized; replicate design: treated separately
Protocol: as §1

UniProt P77485 = conditions: peptide sequence: GTVAVTSDAR; direction: stabilized; replicate design: treated separately
Chain of UniProt P77485 (P77485 whole entry): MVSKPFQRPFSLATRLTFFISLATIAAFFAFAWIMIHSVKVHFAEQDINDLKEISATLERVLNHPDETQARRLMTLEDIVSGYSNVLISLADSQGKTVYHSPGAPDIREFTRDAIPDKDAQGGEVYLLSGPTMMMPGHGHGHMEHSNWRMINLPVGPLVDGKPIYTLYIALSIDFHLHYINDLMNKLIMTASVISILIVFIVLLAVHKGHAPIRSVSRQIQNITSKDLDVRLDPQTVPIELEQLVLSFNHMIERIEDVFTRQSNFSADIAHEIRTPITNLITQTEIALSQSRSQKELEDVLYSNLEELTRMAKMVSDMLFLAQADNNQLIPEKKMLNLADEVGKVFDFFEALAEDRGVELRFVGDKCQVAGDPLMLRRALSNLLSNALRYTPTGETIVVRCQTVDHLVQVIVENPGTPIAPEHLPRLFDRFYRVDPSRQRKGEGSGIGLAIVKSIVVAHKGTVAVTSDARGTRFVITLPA
Protocol: as §1

UniProt P77756 = conditions: peptide sequence: ALNHAVSLGMAK; direction: stabilized; replicate design: treated separately
Protocol: as §1

UniProt Q46927 = conditions: peptide sequence: AALIAYCR; direction: stabilized; replicate design: treated separately
Protocol: as §1

Chain of MurF (P11880 whole entry): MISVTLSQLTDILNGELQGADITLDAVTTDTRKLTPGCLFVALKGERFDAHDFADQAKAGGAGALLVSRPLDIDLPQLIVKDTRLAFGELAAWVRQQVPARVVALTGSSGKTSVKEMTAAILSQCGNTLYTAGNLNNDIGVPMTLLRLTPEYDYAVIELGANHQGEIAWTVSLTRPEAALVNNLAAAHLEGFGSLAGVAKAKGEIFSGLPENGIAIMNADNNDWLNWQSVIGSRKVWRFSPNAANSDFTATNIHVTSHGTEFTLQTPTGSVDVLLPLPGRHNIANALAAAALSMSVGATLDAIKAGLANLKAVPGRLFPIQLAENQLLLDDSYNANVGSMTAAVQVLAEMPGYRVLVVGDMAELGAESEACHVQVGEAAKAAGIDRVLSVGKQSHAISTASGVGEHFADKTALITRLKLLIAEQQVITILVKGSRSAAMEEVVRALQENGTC

Nc1ncnc2c1ncn2[C@@H]1O[C@H](COP(=O)(O)OP(=O)(O)OP(=O)(O)O)[C@@H](O)[C@H]1O [adenosine 5'-triphosphate]
Conditions | pEC50 of peptide local stability change
MurF | 4.01
UniProt P04993 | 2.84
UniProt P09980 | 4.14
UniProt P13000 | 4.87
UniProt P13458 | 2.9
UniProt P14375 | 3.65
UniProt P18392 | 2.88
UniProt P21693 | 3.65
UniProt P23874 | 3.78
UniProt P25539 | 2.74
UniProt P25742 | 2.67
UniProt P27278 | 3.44
UniProt P28903 | 2.76
UniProt P30015 | 3.43
UniProt P31663 | 4.25
UniProt P33919 | 4.16
UniProt P36566 | 2.46
UniProt P37440 | 2.72
UniProt P37617 | 3.12
UniProt P37634 | 2.64
UniProt P37647 | 3.1
UniProt P39177 | 3.26
UniProt P39383 | 3.31
UniProt P43329 | 3.11
UniProt P75828 | 2.65
UniProt P76014 | 3.61
UniProt P76027 | 2.71
UniProt P76192 | 3.75
UniProt P77485 | 2.24
UniProt P77756 | 3.62
UniProt Q46927 | 3.69

— the supplement of paper PMC12819154, “High-throughput peptide-centric local stability assay extends protein–ligand identification to membrane proteins, tissues and bacteria” (Nature Structural & Molecular Biology, 2025)
